Activity calls are given as the source filed them. The rule behind the calls is not given here.
Tests used:
[1] = tested on: MV4-11; test: Induction of apoptosis in human MV4-11 cells assessed as necrotic cells at 30 uM incubated for 3 days by Annexin V staining based flow cytometry (reference value: 2.45 %); format: functional; details: time 3 day
[2] = tested on: MV4-11; test: Anti-cancer activity against human MV4-11 cells assessed as reduction in HoxA9 mRNA level upto 100 uM by qRT-PCR analysis; format: functional, cell-based
[3] = tested on: MV4-11; test: Induction of cell differentiation in human MV4-11 cells assessed as CD11b level at 10 uM incubated for 3 days by Annexin V staining based flow cytometry (reference value: 8.58 %); format: functional; details: time 3 day
[4] = tested on: MOLM-13; test: Induction of apoptosis in human MOLM-13 cells assessed as increase in p53 level upto 100 uM incubated for 3 days by Western blot analysis; format: functional, cell-based; details: time 3.0 day
[5] = tested on: MV4-11; test: Antitumor activity against human MV4-11 cells xenografted in NOD-SCID mouse assessed as decrease in leukemic cells in spleen at 50 mg/kg, sc measured after 33 days relative to control; format: functional; design: scale not given: the % may be the effect or the level left; details: time 33 day
[6] = tested on: MOLM-13; test: Induction of apoptosis in human MOLM-13 cells assessed as viable cells at 10 uM incubated for 3 days by Annexin V staining based flow cytometry (reference value: 90.54 %); format: functional; details: MOLM-13, 72 h, time 3 day, read-out: Activity
[7] = tested on: MOLM-13; test: Induction of apoptosis in human MOLM-13 cells assessed as viable cells at 30 uM incubated for 3 days by Annexin V staining based flow cytometry (reference value: 90.54 %); format: functional; details: MOLM-13, 72 h, time 3 day, read-out: Activity
[8] = tested on: MV4-11; test: Induction of apoptosis in human MV4-11 cells assessed as increase in p53 level upto 100 uM incubated for 3 days by Western blot analysis; format: functional, cell-based; details: time 3.0 day
[9] = tested on: MV4-11; test: Induction of cell differentiation in human MV4-11 cells assessed as increase in CD14 level upto 100 uM incubated for 3 days by Annexin V staining based flow cytometry; format: functional; details: time 3.0 day
[10] = Toxicity in NOD-SCID mouse xenografted with human MV4-11 cells assessed as change in fur morphology at 50 to 78.7 mg/kg, sc measured after 33 days; format: organism-based; details: in vivo, 792 h, dose 50-78.7 mg/kg, time 33 day
[11] = Toxicity in NOD-SCID mouse xenografted with human MV4-11 cells assessed as hunch-back posture at 50 to 78.7 mg/kg, sc measured after 33 days; format: organism-based; details: in vivo, 792 h, dose 50-78.7 mg/kg, time 33 day
[12] = tested on: MOLM-13; test: Induction of apoptosis in human MOLM-13 cells assessed as late apoptotic cells at 10 uM incubated for 3 days by Annexin V staining based flow cytometry (reference value: 3.29 %); format: functional; details: time 3 day
[13] = tested on: MOLM-13; test: Anti-cancer activity against human MOLM-13 cells assessed as reduction in HoxA9 mRNA level upto 100 uM by qRT-PCR analysis relative to control; format: functional; design: scale not given: the % may be the effect or the level left; details: up to 100 µM
[14] = tested on: MV4-11; test: Induction of apoptosis in human MV4-11 cells assessed as late apoptotic cells at 30 uM incubated for 3 days by Annexin V staining based flow cytometry (reference value: 7.29 %); format: functional; details: time 3 day
[15] = tested on: MV4-11; test: Antitumor activity against human MV4-11 cells xenografted in NOD-SCID mouse assessed as decrease in leukemic cells in blood at 50 mg/kg, sc measured after 33 days relative to control; format: functional; design: scale not given: the % may be the effect or the level left; details: time 33 day
[16] = tested on: MV4-11; test: Induction of apoptosis in human MV4-11 cells assessed as viable cells at 100 uM incubated for 3 days by Annexin V staining based flow cytometry (reference value: 89.63 %); format: functional; details: MV4-11, 72 h, time 3 day, read-out: Activity
[17] = tested on: MV4-11; test: Induction of apoptosis in human MV4-11 cells assessed as early apoptotic cells at 30 uM incubated for 3 days by Annexin V staining based flow cytometry (reference value: […] %); format: functional; details: time 3 day
[18] = tested on: MV4-11; test: Induction of apoptosis in human MV4-11 cells assessed as necrotic cells at 10 uM incubated for 3 days by Annexin V staining based flow cytometry (reference value: 2.45 %); format: functional; details: time 3 day
[19] = Toxicity in NOD-SCID mouse xenografted with human MV4-11 cells assessed as body weight reduction at 50 to 78.7 mg/kg, sc measured after 33 days; format: organism-based; design: scale not given: the % may be the effect or the level left; details: in vivo, 792 h, dose 50-78.7 mg/kg, time 33 day
[20] = molecular target: T1, MAO-A (amine oxidase [flavin-containing] A) (Homo sapiens, UniProt P21397); test: Inhibition of N-terminal FLAG-tagged recombinant human MAO-A expressed in baculovirus infected Sf9 cells upto 10 uM preincubated for 15 mins followed by addition of luciferin derivative substrate measured after 1 hr by Luciferase Glo assay relative to control; details: probe luciferin derivative substrate, time 75 min
T1 sequence (P21397 whole entry): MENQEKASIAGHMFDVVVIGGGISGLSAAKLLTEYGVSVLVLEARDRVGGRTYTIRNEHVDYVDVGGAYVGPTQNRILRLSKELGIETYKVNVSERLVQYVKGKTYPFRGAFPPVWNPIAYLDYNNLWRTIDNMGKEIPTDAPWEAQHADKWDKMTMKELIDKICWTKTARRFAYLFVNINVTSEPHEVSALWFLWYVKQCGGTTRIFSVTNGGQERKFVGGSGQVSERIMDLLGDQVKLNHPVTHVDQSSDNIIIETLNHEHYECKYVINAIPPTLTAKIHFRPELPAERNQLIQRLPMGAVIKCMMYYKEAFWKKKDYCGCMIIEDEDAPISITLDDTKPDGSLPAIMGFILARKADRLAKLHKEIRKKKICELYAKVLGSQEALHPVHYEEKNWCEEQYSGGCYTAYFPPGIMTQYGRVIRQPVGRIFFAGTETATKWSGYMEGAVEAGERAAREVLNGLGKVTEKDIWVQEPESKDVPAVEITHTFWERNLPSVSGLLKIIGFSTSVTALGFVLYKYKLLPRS

[21] = tested on: MV4-11; test: Anti-cancer activity against human MV4-11 cells assessed as reduction in Meis1 mRNA level upto 100 uM by qRT-PCR analysis; format: functional, cell-based
[22] = tested on: MOLM-13; test: Induction of apoptosis in human MOLM-13 cells assessed as necrotic cells at 100 uM incubated for 3 days by Annexin V staining based flow cytometry (reference value: 1.23 %); format: functional; details: time 3 day
[23] = tested on: MOLM-13; test: Induction of apoptosis in human MOLM-13 cells assessed as early apoptotic cells at 100 uM incubated for 3 days by Annexin V staining based flow cytometry (reference value: 4.94 %); format: functional; details: time 3 day
[24] = tested on: MOLM-13; test: Induction of apoptosis in human MOLM-13 cells assessed as late apoptotic cells at 30 uM incubated for 3 days by Annexin V staining based flow cytometry (reference value: 3.29 %); format: functional; details: time 3 day
[25] = tested on: MOLM-13; test: Induction of apoptosis in human MOLM-13 cells assessed as early apoptotic cells at 10 uM incubated for 3 days by Annexin V staining based flow cytometry (reference value: 4.94 %); format: functional; details: time 3 day
[26] = tested on: MV4-11; test: Induction of apoptosis in human MV4-11 cells assessed as necrotic cells at 100 uM incubated for 3 days by Annexin V staining based flow cytometry (reference value: 2.45 %); format: functional; details: time 3 day
[27] = tested on: MOLM-13; test: Induction of cell differentiation in human MOLM-13 cells assessed as CD11b level at 30 uM incubated for 3 days by Annexin V staining based flow cytometry (reference value: 13.77 %); format: functional; details: time 3 day
[28] = tested on: MOLM-13; test: Induction of apoptosis in human MOLM-13 cells assessed as necrotic cells at 30 uM incubated for 3 days by Annexin V staining based flow cytometry (reference value: 1.23 %); format: functional; details: time 3 day

## O=C(O)C(F)(F)F.O=[N+]([O-])c1ccc(C2NCCc3cc(O)c(O)cc32)cc1 (stereo not drawn)
[1]
  Activity: 6.36%
[2]
  Activity: Active
[3]
  Activity: 14.39%
[4]
  Activity: Active
[5]
  Activity: 32%
[6]
  viability at 10 µM: 76.6%
[7]
  viability at 30 µM: 61.5%
[8]
  Activity: Active
[9]
  Activity: Active
[10]
  Activity: Toxic
[11]
  Activity: Toxic
[12]
  Activity: 9.88%
[13]
  Activity: ~70%
[14]
  Activity: 28.14%
[15]
  Activity: 35%
[16]
  viability at 100 µM: 49.9%
[17]
  Activity: 7.75%
[18]
  Activity: 4.05%
[19]
  Activity: > 20%
[20]
  inhibition at 1 h, up to 10 µM: < 30%
[21]
  Activity: Active
[22]
  Activity: 16.41%
[23]
  Activity: 9.46%
[24]
  Activity: 15.99%
[25]
  Activity: 7.17%
[26]
  Activity: 15.9%
[27]
  Activity: 90.6%
[28]
  Activity: 14.95%

— ChEMBL document CHEMBL5620367, “Discovery of new tetrahydroisoquinolines as potent and selective LSD1 inhibitors for the treatment of MLL-rearranged leukemia” (Eur J Med Chem, 2023)
